From PubChem BioAssay AID1996
In brackets after ≈: the same amount, converted by molar mass.

Settings: buffer; pH 7.4; 200.0 µM

Q: Which solubility kinetic does the source give for CCOc1ccccc1NC(=O)COc1ccc2ccc(=O)oc2c1 here?
A: The solubility kinetic was 0.9 µg/mL (≈ 2.65 µM).

Q: Which solubility kinetic does the source give for CCc1nc2ccc(N3CCN(C)CC3)cc2nc1CC here?
A: The solubility kinetic was 35.2 µg/mL (≈ 124 µM).

Q: With CC(=O)N1CCN(C2=NC(=O)/C(=C\c3cccs3)S2)CC1 as the molecule, how does the solubility kinetic read?
A: The solubility kinetic was 38.7 µg/mL (≈ 120 µM).

Q: With CCNC(=O)C(=O)Nc1ccc(OC)c(Cl)c1 as the molecule, how does the solubility kinetic read?
A: Its solubility kinetic is 2.4 µg/mL (≈ 9.35 µM).

Q: With CCn1c(SCC(=O)O)nc2ccccc21 as the molecule, how does the solubility kinetic read?
A: Its solubility kinetic is over 35.4 µg/mL.

Q: With CN1CCN(C(=O)c2cccn(Cc3cccc(Cl)c3)c2=O)CC1 as the molecule, how does the solubility kinetic read?
A: Its solubility kinetic is over 51.9 µg/mL.

Q: For O=C(O)c1cccc(Nc2nc3ccccc3nc2NS(=O)(=O)c2ccc(F)cc2)c1, which solubility kinetic is on record?
A: Its solubility kinetic is over 65.8 µg/mL.

Q: With CN(CC(=O)Nc1ccc(F)cc1Cl)Cc1cccs1 as the molecule, how does the solubility kinetic read?
A: Its solubility kinetic is 14.6 µg/mL (≈ 46.7 µM).

Q: With O=C(NC1CCCCC1)c1ccc(-c2ccc(Cl)cc2)o1 as the molecule, how does the solubility kinetic read?
A: Its solubility kinetic is under 0.7 µg/mL.

Q: Which solubility kinetic does the source give for O=[N+]([O-])c1cccc2c(S(=O)(=O)N3CCCCC3)cccc12 here?
A: Its solubility kinetic is 9.5 µg/mL (≈ 29.7 µM).

Q: For CCC(OC(=O)c1ccco1)C(=O)NCc1ccc(OC)cc1 (stereo not given), which solubility kinetic is on record?
A: Its solubility kinetic is over 47.6 µg/mL.

Q: For Clc1ccc(-c2csc(-c3ccno3)n2)cc1, which solubility kinetic is on record?
A: Its solubility kinetic is under 0.3 µg/mL.

Q: For COc1ccc(CC(=O)Nc2ccc(N(C)C)c3ccccc23)cc1, which solubility kinetic is on record?
A: The solubility kinetic was 7.6 µg/mL (≈ 22.7 µM).

Q: With CC(=O)Nc1ccc(N2CCN(c3ccc(F)cc3)CC2)cc1 as the molecule, how does the solubility kinetic read?
A: The solubility kinetic was 0.7 µg/mL (≈ 2.23 µM).

Q: For Cn1c(=O)[nH]c2ncccc21, which solubility kinetic is on record?
A: Its solubility kinetic is over 22.4 µg/mL.

Q: Which solubility kinetic does the source give for COc1ccc(N2C(=O)CC(N3CCCCC3)C2=O)cc1 (stereo not given) here?
A: Its solubility kinetic is over 43.3 µg/mL.

Q: Which solubility kinetic does the source give for Cc1ccc(C)c(-c2csc(Nc3ncccn3)n2)c1 here?
A: The solubility kinetic was 0.2 µg/mL (≈ 0.708 µM).

Q: For O=C(Nc1ccc(Cl)cc1)N1CCN(Cc2ccc3c(c2)OCO3)CC1, which solubility kinetic is on record?
A: The solubility kinetic was 5.7 µg/mL (≈ 15.2 µM).

Q: Which solubility kinetic does the source give for COc1ccc(-c2nc(-c3cccs3)no2)cc1 here?
A: Its solubility kinetic is under 0.3 µg/mL.

Q: For Cc1c(Cl)cccc1NC(=O)CNC(=O)C1CC(=O)N(C2CCCC2)C1 (stereo not given), which solubility kinetic is on record?
A: Its solubility kinetic is over 56.7 µg/mL.

Q: Which solubility kinetic does the source give for c1ccc(CNc2ncnc3sccc23)cc1 here?
A: The solubility kinetic was 31.9 µg/mL (≈ 132 µM).

Q: Which solubility kinetic does the source give for O=C(CN1C(=O)NC2(CCCCCC2)C1=O)NCc1ccccc1 here?
A: Its solubility kinetic is over 49.4 µg/mL.

Q: For COc1ccc(C2(NC(C)=O)CCN(Cc3cccnc3)CC2)cc1, which solubility kinetic is on record?
A: Its solubility kinetic is 40.9 µg/mL (≈ 120 µM).

Q: With C[C@H](NC(=O)Nc1cccc(Br)c1)C(=O)O as the molecule, how does the solubility kinetic read?
A: The solubility kinetic was over 43.1 µg/mL.

Q: For O=C(OCc1ccc([N+](=O)[O-])cc1)c1cnc(Cl)c(Cl)c1, which solubility kinetic is on record?
A: Its solubility kinetic is 0.4 µg/mL (≈ 1.22 µM).

Q: With O=C(NC1CCCCC1)NC1C2CC3CC(C2)CC1C3 (stereo not given) as the molecule, how does the solubility kinetic read?
A: The solubility kinetic was 2.3 µg/mL (≈ 8.32 µM).

Q: For O=C(O)CC1(CC(=O)Nc2ccc(F)c(Cl)c2)CCCCC1, which solubility kinetic is on record?
A: The solubility kinetic was over 49.2 µg/mL.

Q: Which solubility kinetic does the source give for CC(C)C(C(=O)Nc1ccccc1F)N1C(=O)c2ccccc2C1=O (stereo not given) here?
A: Its solubility kinetic is 38.4 µg/mL (≈ 113 µM).

Q: With CC1CC(C)CN(C(=O)COC(=O)c2ccc(S(=O)(=O)N(C)c3ccccc3)cc2)C1 (stereo not given) as the molecule, how does the solubility kinetic read?
A: Its solubility kinetic is 7.8 µg/mL (≈ 17.5 µM).

Q: Which solubility kinetic does the source give for O=S(=O)(Nc1ccc(N2CCCCC2)cc1)c1ccc(F)cc1F here?
A: Its solubility kinetic is 41.3 µg/mL (≈ 117 µM).

Q: For CCc1ccc(OCCNC(=O)c2ccco2)cc1, which solubility kinetic is on record?
A: The solubility kinetic was over 38.9 µg/mL.

Q: Which solubility kinetic does the source give for S=C1NCN(Cc2ccco2)CN1Cc1ccco1 here?
A: Its solubility kinetic is 40.3 µg/mL (≈ 145 µM).

Q: Which solubility kinetic does the source give for Cc1cc(C)cc(C(=O)N2CCN(c3ccccn3)CC2)c1 here?
A: The solubility kinetic was 42.7 µg/mL (≈ 145 µM).

Q: Which solubility kinetic does the source give for COc1ccc(CNC(=O)CN(C)CC(=O)Nc2ccccc2Br)cc1 here?
A: Its solubility kinetic is over 63 µg/mL.

Q: Which solubility kinetic does the source give for Cn1cnc(S(=O)(=O)Nc2ccc(OC(F)(F)F)cc2)c1 here?
A: Its solubility kinetic is 39.7 µg/mL (≈ 124 µM).

Q: Which solubility kinetic does the source give for O=C(NCCCSc1ccccc1)c1ccc(=O)[nH]c1 here?
A: The solubility kinetic was over 43.3 µg/mL.

Q: Which solubility kinetic does the source give for CN(C(=O)c1ccc2c(c1)CCO2)C(C)(C)C here?
A: Its solubility kinetic is 23.9 µg/mL (≈ 102 µM).

Q: Which solubility kinetic does the source give for C(#CC12CC3CC(CC(C3)C1)C2)CN1CCOCC1 here?
A: The solubility kinetic was 17.8 µg/mL (≈ 68.6 µM).

Q: Which solubility kinetic does the source give for O=C(O)C1CCN(C(=O)CSc2nnc(-c3ccccc3)o2)CC1 here?
A: The solubility kinetic was over 52.1 µg/mL.

Q: For CC1(C)CC(=O)N(c2cccc(Cl)c2)C(=O)C1, which solubility kinetic is on record?
A: The solubility kinetic was over 37.8 µg/mL.

Q: Which solubility kinetic does the source give for CN(C)c1ccc(/C=C/c2nc3ccccc3c(=O)[nH]2)cc1 here?
A: Its solubility kinetic is 0.6 µg/mL (≈ 2.06 µM).

Q: With Cc1ccc2[nH]c(CSc3ccccc3)cc(=O)c2c1 as the molecule, how does the solubility kinetic read?
A: Its solubility kinetic is 14.9 µg/mL (≈ 53 µM).

Q: With Nc1cc(S(=O)(=O)c2ccc(O)c(N)c2)ccc1O as the molecule, how does the solubility kinetic read?
A: The solubility kinetic was over 42 µg/mL.

Q: Which solubility kinetic does the source give for CC(NC(=O)c1ccc2ccccc2n1)c1ccccc1 (stereo not given) here?
A: Its solubility kinetic is 18.9 µg/mL (≈ 68.4 µM).

Q: With Cc1ccccc1Sc1ncccc1[N+](=O)[O-] as the molecule, how does the solubility kinetic read?
A: The solubility kinetic was 5.1 µg/mL (≈ 20.7 µM).

Q: Which solubility kinetic does the source give for O=C(Nc1ccccc1O)N1c2ccccc2Sc2ccccc21 here?
A: The solubility kinetic was under 0.4 µg/mL.

Q: Which solubility kinetic does the source give for Cc1cccc(NC(=O)CCn2c(=O)oc3ccccc32)c1 here?
A: The solubility kinetic was 38.2 µg/mL (≈ 129 µM).

Q: Which solubility kinetic does the source give for Cc1ccc(-c2nc3ccccc3c(=O)o2)cc1 here?
A: Its solubility kinetic is 1.2 µg/mL (≈ 5.06 µM).

Q: Which solubility kinetic does the source give for COc1ccc(S(=O)(=O)n2cnc(C)c2)cc1 here?
A: Its solubility kinetic is over 37.8 µg/mL.

Q: With COc1ccc(OC(=O)/C=C/c2ccc([N+](=O)[O-])cc2)cc1 as the molecule, how does the solubility kinetic read?
A: Its solubility kinetic is under 0.6 µg/mL.

Q: With Cc1nc(SCC(=O)N2CCCCCC2)[nH]c(=O)c1C as the molecule, how does the solubility kinetic read?
A: The solubility kinetic was over 44.3 µg/mL.

Q: For O=S(=O)(c1cnc(Cl)c(Cl)c1)N1CCN(c2ncccn2)CC1, which solubility kinetic is on record?
A: Its solubility kinetic is 0.4 µg/mL (≈ 1.07 µM).

Q: For O=C(COC(=O)c1ccc(O)cc1)NC1CCCC1, which solubility kinetic is on record?
A: Its solubility kinetic is over 39.5 µg/mL.

Q: With COc1cccc(NC(=O)CN(C)C(=O)c2cccc(S(=O)(=O)N3CC4(C)CC3CC(C)(C)C4)c2)c1 (stereo not given) as the molecule, how does the solubility kinetic read?
A: Its solubility kinetic is 2 µg/mL (≈ 3.89 µM).

Q: Which solubility kinetic does the source give for O=C(OCC(=O)N1CCCc2ccccc21)c1cc(Cl)ccc1O here?
A: Its solubility kinetic is 3.4 µg/mL (≈ 9.83 µM).

Q: With CCCC(=O)Nc1nc(-c2ccc(Cl)s2)cs1 as the molecule, how does the solubility kinetic read?
A: Its solubility kinetic is 1.5 µg/mL (≈ 5.23 µM).

Q: Which solubility kinetic does the source give for O=C(O)C1CCCN1C(=O)OCC1c2ccccc2-c2ccccc21 (stereo not given) here?
A: The solubility kinetic was over 50.6 µg/mL.

Q: Which solubility kinetic does the source give for NC(=O)C1CCCN(S(=O)(=O)c2ccc3ccccc3c2)C1 (stereo not given) here?
A: The solubility kinetic was 13.1 µg/mL (≈ 41.1 µM).

Q: Which solubility kinetic does the source give for CCN1C(=O)c2cccc3c(N)ccc(c23)C1=O here?
A: Its solubility kinetic is 7.5 µg/mL (≈ 31.2 µM).

Q: With CC(C)=CC(=O)OCc1cc([N+](=O)[O-])cc2c1OCOC2 as the molecule, how does the solubility kinetic read?
A: The solubility kinetic was 3.3 µg/mL (≈ 11.3 µM).
